These results are taken from ChEMBL document CHEMBL1133432, “Probes for imidazoline binding sites: synthesis and evaluation of a selective, irreversible I2 ligand” (Bioorg Med Chem Lett, 2000).

A short description of test [1]: Inhibition of 1 nM [3H]2-BFI binding to rat whole brain membrane imidazoline receptor I-2.
For test [2], the target named is T1, Adrenergic receptor alpha-2 (Rattus norvegicus, UniProt P22086+P19328+P22909).
T1 sequence (P22086 whole entry): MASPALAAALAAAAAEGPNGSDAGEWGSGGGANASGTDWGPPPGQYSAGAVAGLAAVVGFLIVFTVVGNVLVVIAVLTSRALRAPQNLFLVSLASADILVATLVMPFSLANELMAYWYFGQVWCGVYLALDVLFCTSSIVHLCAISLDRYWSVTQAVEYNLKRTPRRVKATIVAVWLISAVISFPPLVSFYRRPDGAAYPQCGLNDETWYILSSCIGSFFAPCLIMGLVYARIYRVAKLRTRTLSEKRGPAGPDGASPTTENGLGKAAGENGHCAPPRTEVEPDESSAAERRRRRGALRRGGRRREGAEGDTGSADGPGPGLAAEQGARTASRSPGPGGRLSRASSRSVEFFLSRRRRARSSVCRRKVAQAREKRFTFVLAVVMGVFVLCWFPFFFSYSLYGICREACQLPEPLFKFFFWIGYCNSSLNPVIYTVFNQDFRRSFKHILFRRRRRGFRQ
T1 sequence (P19328 whole entry): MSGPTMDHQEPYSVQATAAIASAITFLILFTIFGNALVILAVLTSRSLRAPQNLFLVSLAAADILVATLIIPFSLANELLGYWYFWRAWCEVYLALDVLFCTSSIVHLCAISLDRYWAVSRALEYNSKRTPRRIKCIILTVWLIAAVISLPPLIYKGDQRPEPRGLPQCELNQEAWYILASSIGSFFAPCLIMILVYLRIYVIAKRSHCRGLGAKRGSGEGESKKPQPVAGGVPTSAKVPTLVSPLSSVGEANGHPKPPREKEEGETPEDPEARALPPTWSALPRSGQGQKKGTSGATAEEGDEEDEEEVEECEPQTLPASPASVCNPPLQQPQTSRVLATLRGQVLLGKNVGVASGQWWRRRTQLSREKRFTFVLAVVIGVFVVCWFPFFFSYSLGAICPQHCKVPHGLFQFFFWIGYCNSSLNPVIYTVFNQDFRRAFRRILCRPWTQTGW
T1 sequence (P22909 whole entry): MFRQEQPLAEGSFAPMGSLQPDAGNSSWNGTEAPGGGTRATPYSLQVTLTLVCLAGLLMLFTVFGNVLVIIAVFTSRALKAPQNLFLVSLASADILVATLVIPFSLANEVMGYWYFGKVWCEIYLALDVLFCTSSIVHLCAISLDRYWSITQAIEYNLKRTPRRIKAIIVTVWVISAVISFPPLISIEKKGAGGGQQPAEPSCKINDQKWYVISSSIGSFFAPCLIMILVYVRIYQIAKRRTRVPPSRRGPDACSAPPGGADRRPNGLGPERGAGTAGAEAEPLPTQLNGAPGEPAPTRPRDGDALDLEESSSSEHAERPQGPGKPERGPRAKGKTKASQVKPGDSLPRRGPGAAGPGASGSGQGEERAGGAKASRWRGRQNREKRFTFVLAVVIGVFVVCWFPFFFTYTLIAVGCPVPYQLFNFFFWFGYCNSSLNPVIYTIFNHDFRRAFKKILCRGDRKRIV
Nature of the test: Inhibition of 1 nM [3H]RX-821002 binding to rat whole brain membrane Alpha-2 adrenergic receptors.

Broadly, the Ki is the dissociation constant of the complex between target and ligand, obtained from inhibition or displacement. As for `N#CSc1ccc2oc(C3=NCCN3)cc2c1`, the Ki in test [1] was 2.3 nM; in test [2] it was 16300 nM.

Regarding `c1ccc2oc(C3=NCCN3)cc2c1`, the inhibition constant (Ki) in test [1] was determined as 1.7 nM; in test [2], 1900 nM.
